# Assay results published in ChEMBL document CHEMBL1155821, “Discovery of (-)-7-methyl-2-exo-[3'-(6-[18F]fluoropyridin-2-yl)-5'-pyridinyl]-7-azabicyclo[2.2.1]heptane, a radiolabeled antagonist for cerebral nicotinic acetylcholine receptor (alpha4beta2-nAChR) with optimal positron emission tomography imaging properties” (J Med Chem, 2008).
# Assays:
# [1] = Lipophilicity, log D at pH 7.4; format: physicochemical; conditions: buffer
# Mus musculus [2] = assay: Toxicity in CD1 mouse assessed as straub tail response at 1.3 umol/kg, iv; format: organism-based; conditions: in vivo
# Mus musculus [3] = assay: Toxicity in CD1 mouse assessed as mortality at 2.0 umol/kg, iv; format: organism-based; conditions: in vivo
# Mus musculus [4] = assay: Toxicity in CD1 mouse assessed as seizures at 1.3 umol/kg, iv; format: organism-based; conditions: in vivo
# [5] = biological target: Neuronal acetylcholine receptor; alpha3/beta4 (Rattus norvegicus, UniProt P04757+P12392); assay: Displacement of [3H]epibatidine from rat alpha3beta4 nAChR expressed in HEK293 cells; format: cell-based
# [6] = biological target: Neuronal acetylcholine receptor subunit alpha-6 (Rattus norvegicus, UniProt P12390+P43143); assay: Displacement of [3H]epibatidine from rat alpha6beta2 nAChR expressed in HEK293 cells; format: cell-based
# [7] = biological target: Neuronal acetylcholine receptor; alpha4/beta4 (Rattus norvegicus, UniProt P09483+P12392); assay: Displacement of [3H]epibatidine from rat alpha4beta4 nAChR expressed in HEK293 cells; format: cell-based
# [8] = biological target: Neuronal acetylcholine receptor; alpha2/beta4 (Rattus norvegicus, UniProt P12389+P12392); assay: Displacement of [3H]epibatidine from rat alpha2beta4 nAChR expressed in HEK293 cells; format: cell-based
# [9] = biological target: Neuronal acetylcholine receptor; alpha3/beta2 (Rattus norvegicus, UniProt P04757+P12390); assay: Displacement of [3H]epibatidine from rat alpha3beta2 nAChR expressed in HEK293 cells; format: cell-based
# [10] = biological target: Neuronal acetylcholine receptor subunit alpha-2 (Rattus norvegicus, UniProt P12389+P12390); assay: Displacement of [3H]epibatidine from rat alpha2beta2 nAChR expressed in HEK293 cells; format: cell-based
# [11] = Displacement of [3H]epibatidine from nAChR in rat cerebral cortex membrane; format: cell membranes
# [12] = biological target: Neuronal acetylcholine receptor; alpha4/beta2 (Rattus norvegicus, UniProt P09483+P12390); assay: Displacement of [3H]epibatidine from rat alpha4beta2 nAChR expressed in HEK293 cells; format: cell-based
# Mus musculus [13] = assay: Toxicity in CD1 mouse assessed as seizures at 6.7 umol/kg, iv; format: organism-based; conditions: in vivo
# [14] = Half life in rhesus monkey thalamus; format: ADME, organism-based, Macaca mulatta
# Mus musculus [15] = assay: Toxicity in CD1 mouse assessed as hyperactivity at 3.3 umol/kg, iv; format: organism-based; conditions: in vivo
# Mus musculus [16] = assay: Toxicity in CD1 mouse assessed as circling behavior at 0.8 umol/kg, iv; format: organism-based; conditions: in vivo
# Mus musculus [17] = assay: Toxicity in CD1 mouse assessed as straub tail response at 0.8 umol/kg, iv; format: organism-based; conditions: in vivo
# Mus musculus [18] = assay: Toxicity in CD1 mouse assessed as straub tail response at 6.7 umol/kg, iv; format: organism-based; conditions: in vivo
# Mus musculus [19] = assay: Toxicity in CD1 mouse assessed as circling behavior at 1.7 umol/kg, iv; format: organism-based; conditions: in vivo
# Mus musculus [20] = assay: Toxicity in CD1 mouse assessed as straub tail response at 3.3 umol/kg, iv; format: organism-based; conditions: in vivo
# Mus musculus [21] = assay: Toxicity in CD1 mouse assessed as straub tail response at 1.7 umol/kg, iv; format: organism-based; conditions: in vivo
# [22] = biological target: T1, Neuronal acetylcholine receptor; alpha4/beta2 (Homo sapiens, UniProt P17787+P43681); assay: Antagonist activity at human alpha4beta2 nAChR expressed in human SHEP1 cells assessed as reduction in peak amplitude at 1 uM by whole cell patch clamp technique in presence of acetylcholine; format: functional, cell-based; set-up: scale not given: the % may be the effect or the level left
# [23] = Metabolic stability in iv dosed baboon blood after 60 mins; format: ADME, organism-based; conditions: papio anubis, read-out: Stability
# [24] = Half life in iv dosed baboon thalamus; format: ADME, organism-based; conditions: papio anubis
# [25] = Metabolic stability in CD1 mouse brain at 1.5 MBq, iv after 30 mins; format: ADME, organism-based; conditions: read-out: Stability
# [26] = Metabolic stability in CD1 mouse blood at 1.5 MBq, iv after 30 mins; format: ADME, organism-based; conditions: read-out: Stability
# Mus musculus [27] = assay: Toxicity in CD1 mouse at 0.002 umol/kg, iv; format: organism-based; conditions: in vivo
# [28] = biological target: T1, Neuronal acetylcholine receptor; alpha4/beta2; assay: Binding affinity to human alpha4beta2 nAChR expressed in human SHEP1 cells; format: cell-based
# Mus musculus [29] = assay: Toxicity in CD1 mouse at 0.05 umol/kg, iv; format: organism-based; conditions: in vivo
# Mus musculus [30] = assay: Toxicity in CD1 mouse at 0.2 umol/kg, iv; format: organism-based; conditions: in vivo
# Mus musculus [31] = assay: Toxicity in CD1 mouse assessed as reduced locomotor activity at 2.0 umol/kg, iv; format: organism-based; conditions: in vivo
# Chain of Neuronal acetylcholine receptor subunit alpha-2 (P12389 whole entry, one chain of several): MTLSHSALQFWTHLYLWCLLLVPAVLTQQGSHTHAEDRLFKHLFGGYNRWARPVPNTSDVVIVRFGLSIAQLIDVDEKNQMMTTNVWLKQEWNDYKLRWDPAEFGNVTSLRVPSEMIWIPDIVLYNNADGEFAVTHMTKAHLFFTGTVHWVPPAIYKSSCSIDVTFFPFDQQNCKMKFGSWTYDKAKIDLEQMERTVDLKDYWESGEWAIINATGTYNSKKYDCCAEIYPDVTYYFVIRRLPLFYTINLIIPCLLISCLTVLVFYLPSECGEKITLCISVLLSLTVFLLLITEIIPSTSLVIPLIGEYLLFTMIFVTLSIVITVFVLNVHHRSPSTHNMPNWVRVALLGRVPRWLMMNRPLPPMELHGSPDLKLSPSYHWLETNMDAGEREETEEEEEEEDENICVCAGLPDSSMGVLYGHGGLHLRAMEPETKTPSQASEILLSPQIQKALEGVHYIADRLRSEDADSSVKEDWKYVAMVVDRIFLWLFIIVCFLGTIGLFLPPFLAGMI
# Chain of Neuronal acetylcholine receptor; alpha2/beta4 (P12389 whole entry): as the sequence (P12389 whole entry, one chain of several) above
# Chain of Neuronal acetylcholine receptor; alpha2/beta4 (P12392 whole entry): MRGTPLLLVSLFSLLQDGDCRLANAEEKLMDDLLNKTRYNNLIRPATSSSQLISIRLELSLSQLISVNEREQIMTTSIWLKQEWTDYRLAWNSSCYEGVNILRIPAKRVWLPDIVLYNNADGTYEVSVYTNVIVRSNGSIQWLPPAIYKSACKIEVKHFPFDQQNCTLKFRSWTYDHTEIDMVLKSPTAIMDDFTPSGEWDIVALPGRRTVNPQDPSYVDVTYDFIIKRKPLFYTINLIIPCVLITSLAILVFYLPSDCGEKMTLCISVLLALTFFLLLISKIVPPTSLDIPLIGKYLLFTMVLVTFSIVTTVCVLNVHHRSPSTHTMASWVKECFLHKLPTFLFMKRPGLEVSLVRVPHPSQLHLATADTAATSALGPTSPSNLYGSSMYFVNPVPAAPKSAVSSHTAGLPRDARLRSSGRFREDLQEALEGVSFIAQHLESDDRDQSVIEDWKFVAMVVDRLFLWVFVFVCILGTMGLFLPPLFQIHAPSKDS
# Chain of Neuronal acetylcholine receptor; alpha4/beta4 (P09483 whole entry): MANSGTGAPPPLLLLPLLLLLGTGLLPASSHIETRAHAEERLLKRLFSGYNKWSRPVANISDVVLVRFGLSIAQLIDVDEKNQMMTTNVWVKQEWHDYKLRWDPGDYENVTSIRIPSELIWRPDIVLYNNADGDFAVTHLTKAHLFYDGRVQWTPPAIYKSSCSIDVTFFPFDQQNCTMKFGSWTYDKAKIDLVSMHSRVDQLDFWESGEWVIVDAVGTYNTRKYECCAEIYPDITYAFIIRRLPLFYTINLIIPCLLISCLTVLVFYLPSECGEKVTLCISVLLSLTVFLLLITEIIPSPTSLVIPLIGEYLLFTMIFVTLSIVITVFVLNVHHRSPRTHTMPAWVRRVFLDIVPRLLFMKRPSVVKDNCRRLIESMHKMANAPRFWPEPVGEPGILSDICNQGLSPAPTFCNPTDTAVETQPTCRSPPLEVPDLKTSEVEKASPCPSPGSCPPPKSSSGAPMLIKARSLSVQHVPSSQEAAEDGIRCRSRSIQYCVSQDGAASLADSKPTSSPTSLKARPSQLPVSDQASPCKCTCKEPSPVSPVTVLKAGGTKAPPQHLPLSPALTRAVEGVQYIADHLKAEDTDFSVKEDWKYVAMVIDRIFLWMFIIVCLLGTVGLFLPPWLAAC
# Chain of Neuronal acetylcholine receptor; alpha4/beta4 (P12392 whole entry): as the sequence (P12392 whole entry) above
# Chain of Neuronal acetylcholine receptor; alpha4/beta2 (Rattus norvegicus, UniProt P09483+P12390) (P09483 whole entry): as the sequence (P09483 whole entry) above
# Chain of Neuronal acetylcholine receptor; alpha4/beta2 (Rattus norvegicus, UniProt P09483+P12390) (P12390 whole entry): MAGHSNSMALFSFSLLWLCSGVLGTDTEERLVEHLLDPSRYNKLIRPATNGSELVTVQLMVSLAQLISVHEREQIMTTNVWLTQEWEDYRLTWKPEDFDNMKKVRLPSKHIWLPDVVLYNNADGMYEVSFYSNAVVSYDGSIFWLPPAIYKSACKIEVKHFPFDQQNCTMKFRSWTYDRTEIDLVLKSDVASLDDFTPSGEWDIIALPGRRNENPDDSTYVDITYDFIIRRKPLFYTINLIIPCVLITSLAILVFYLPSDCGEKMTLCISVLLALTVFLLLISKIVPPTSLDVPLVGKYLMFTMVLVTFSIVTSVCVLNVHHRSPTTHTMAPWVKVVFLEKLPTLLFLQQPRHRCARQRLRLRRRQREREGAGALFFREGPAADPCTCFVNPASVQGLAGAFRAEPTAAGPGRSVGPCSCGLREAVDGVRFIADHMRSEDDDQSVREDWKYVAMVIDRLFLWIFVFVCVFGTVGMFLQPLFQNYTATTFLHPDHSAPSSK
# Chain of Neuronal acetylcholine receptor; alpha3/beta4 (P04757 whole entry): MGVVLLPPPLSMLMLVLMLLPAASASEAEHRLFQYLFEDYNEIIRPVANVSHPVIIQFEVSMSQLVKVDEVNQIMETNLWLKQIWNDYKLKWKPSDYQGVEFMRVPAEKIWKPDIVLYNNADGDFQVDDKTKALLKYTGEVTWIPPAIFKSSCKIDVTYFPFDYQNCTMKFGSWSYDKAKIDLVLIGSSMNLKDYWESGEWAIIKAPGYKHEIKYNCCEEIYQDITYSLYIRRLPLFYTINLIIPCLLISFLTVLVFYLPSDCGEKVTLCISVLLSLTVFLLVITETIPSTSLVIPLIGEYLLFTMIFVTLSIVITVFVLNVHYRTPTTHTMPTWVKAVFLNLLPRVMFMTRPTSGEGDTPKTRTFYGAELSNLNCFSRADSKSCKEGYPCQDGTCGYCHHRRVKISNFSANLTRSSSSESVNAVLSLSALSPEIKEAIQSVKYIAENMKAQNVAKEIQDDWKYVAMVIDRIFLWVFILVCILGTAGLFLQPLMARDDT
# Chain of Neuronal acetylcholine receptor; alpha3/beta4 (P12392 whole entry): as the sequence (P12392 whole entry) above
# Chain of Neuronal acetylcholine receptor; alpha3/beta2 (P04757 whole entry): as the sequence (P04757 whole entry) above
# Chain of Neuronal acetylcholine receptor; alpha3/beta2 (P12390 whole entry): as the sequence (P12390 whole entry) above
# Chain of Neuronal acetylcholine receptor subunit alpha-6 (P43143 whole entry, one chain of several): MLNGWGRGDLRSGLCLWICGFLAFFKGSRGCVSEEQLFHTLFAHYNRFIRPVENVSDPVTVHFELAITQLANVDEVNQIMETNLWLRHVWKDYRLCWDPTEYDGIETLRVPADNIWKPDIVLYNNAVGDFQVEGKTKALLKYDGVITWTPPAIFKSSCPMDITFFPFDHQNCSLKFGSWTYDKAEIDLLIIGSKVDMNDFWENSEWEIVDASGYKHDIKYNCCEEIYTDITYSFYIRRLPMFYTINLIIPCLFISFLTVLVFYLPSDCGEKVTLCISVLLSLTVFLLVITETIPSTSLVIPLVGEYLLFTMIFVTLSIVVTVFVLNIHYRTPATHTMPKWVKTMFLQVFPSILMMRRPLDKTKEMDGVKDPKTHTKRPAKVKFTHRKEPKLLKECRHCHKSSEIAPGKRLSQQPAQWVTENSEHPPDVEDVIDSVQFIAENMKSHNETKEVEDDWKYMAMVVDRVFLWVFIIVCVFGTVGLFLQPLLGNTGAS
# T1 sequence (P17787 whole entry): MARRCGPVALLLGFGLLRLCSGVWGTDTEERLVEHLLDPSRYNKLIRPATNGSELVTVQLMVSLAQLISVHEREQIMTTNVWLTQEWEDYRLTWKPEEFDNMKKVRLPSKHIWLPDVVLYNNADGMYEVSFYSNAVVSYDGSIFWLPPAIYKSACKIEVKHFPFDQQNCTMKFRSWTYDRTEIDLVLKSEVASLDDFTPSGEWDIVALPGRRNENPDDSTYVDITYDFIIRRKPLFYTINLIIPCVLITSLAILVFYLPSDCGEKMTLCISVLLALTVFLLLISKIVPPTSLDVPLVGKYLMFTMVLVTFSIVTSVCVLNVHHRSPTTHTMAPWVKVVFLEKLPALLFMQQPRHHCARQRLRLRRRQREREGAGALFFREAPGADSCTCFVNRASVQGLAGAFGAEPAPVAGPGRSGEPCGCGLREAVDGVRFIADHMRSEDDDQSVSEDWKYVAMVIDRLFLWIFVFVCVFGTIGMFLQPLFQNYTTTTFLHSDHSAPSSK
# T1 sequence (P43681 whole entry): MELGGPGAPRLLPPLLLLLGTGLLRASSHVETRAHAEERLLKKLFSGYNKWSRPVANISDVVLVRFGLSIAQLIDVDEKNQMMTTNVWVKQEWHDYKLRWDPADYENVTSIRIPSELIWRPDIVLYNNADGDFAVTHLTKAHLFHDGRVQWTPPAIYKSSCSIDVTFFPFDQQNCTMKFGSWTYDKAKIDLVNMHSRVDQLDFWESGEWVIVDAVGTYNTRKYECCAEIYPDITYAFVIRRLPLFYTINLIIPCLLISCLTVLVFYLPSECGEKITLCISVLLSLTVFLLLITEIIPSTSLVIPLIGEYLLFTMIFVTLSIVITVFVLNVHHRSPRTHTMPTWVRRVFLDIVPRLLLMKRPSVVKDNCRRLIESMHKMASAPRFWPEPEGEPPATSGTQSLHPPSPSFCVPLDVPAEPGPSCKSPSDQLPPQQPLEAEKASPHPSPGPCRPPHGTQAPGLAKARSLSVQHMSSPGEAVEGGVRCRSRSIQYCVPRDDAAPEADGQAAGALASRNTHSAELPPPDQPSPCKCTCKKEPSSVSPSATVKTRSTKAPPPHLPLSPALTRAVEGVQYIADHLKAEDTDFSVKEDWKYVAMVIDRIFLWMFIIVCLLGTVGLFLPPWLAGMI
compound,measurement,setting,value
CN1[C@@H]2CC[C@@H]1[C@@H](c1cncc(-c3ccnc(F)c3)c1)C2 (racemic),logD,[1],0.74
[18F]c1ccc(OC[C@@H]2CCN2)cn1,Activity,Mus musculus [2],Toxic
same,Activity,Mus musculus [3],Toxic
same,Activity,Mus musculus [4],Toxic
"CN1C2CCC1C(c1cncc(-c3ccc(F)nc3)c1)C2 (single isomer, unassigned; (-))",Ki,[5],30 nM
same,Ki,[6],0.047 nM
same,Ki,[7],0.31 nM
same,Ki,[8],0.51 nM
same,Ki,[9],0.093 nM
same,logD,[1],0.46
same,Ki,[10],0.009 nM
same,Ki,[11],0.05 nM
same,Ki,[12],0.011 nM
CN1[C@@H]2CC[C@@H]1[C@@H](c1cncc(-c3cccnc3F)c1)C2 (stereo in doubt; (-)-6b),Ki,[5],41 nM
same,Ki,[6],0.021 nM
same,Ki,[7],0.71 nM
same,Ki,[8],0.66 nM
same,Ki,[9],0.68 nM
same,Ki,[10],0.034 nM
same,Ki,[11],0.05 nM
same,Ki,[12],0.058 nM
CN1[C@@H]2CC[C@@H]1[C@@H](c1cncc(-c3cccnc3F)c1)C2 (racemic),logD,[1],0.67
same,Ki,[11],0.16 nM
CN1[C@@H]2CC[C@@H]1[C@@H](c1cncc(-c3ccnc(F)c3)c1)C2 (stereo in doubt; (-)-6a),Ki,[5],39 nM
same,Ki,[6],0.031 nM
same,Ki,[7],0.58 nM
same,Ki,[8],0.84 nM
same,Ki,[9],0.13 nM
same,Ki,[10],0.015 nM
same,Ki,[11],0.11 nM
same,Ki,[12],0.019 nM
[18F]c1ncccc1OC[C@@H]1CCN1,Ki,[5],3680 nM
same,Activity,Mus musculus [13],Toxic
same,half-life,[14],4.5 h
same,Activity,Mus musculus [15],Toxic
same,Activity,Mus musculus [16],Toxic
same,Activity,Mus musculus [17],Toxic
same,Ki,[8],181 nM
same,Ki,[9],3.02 nM
same,Ki,[10],1.44 nM
same,Activity,Mus musculus [18],Toxic
same,Activity,Mus musculus [19],Toxic
same,Activity,Mus musculus [20],Toxic
same,Activity,Mus musculus [21],Toxic
CN1[C@@H]2CC[C@@H]1[C@@H](c1cncc(-c3ccnc(F)c3)c1)C2 (stereo in doubt; (+)-6a),Ki,[11],1.29 nM
"CN1C2CCC1C(c1cncc(-c3ccc([18F])nc3)c1)C2 (single isomer, unassigned; (+))",Ki,[11],2.1 nM
CN1[C@@H]2CC[C@@H]1[C@@H](c1cncc(-c3cccc(F)n3)c1)C2 (stereo in doubt; (-)-6c) [listing 1 of 2 here],Activity,[22],14%
CN1[C@@H]2CC[C@@H]1[C@@H](c1cncc(-c3cccc(F)n3)c1)C2 (stereo in doubt; (+)-6c),Ki,[11],4.67 nM
CN1[C@@H]2CC[C@@H]1[C@@H](c1cncc(-c3cccc([18F])n3)c1)C2,remaining at 1 h,[23],14.9%
same,half-life,[24],1.33 h
same,remaining at 0.5 h,[25],92.5%
same,remaining at 0.5 h,[26],12.3%
CN1[C@@H]2CC[C@@H]1[C@@H](c1cncc(-c3cccnc3[18F])c1)C2,half-life,[24],3.5 h
CN1[C@@H]2CC[C@@H]1[C@@H](c1cncc(-c3cccc(F)n3)c1)C2 (stereo in doubt; (-)-6c) [listing 2 of 2 here],Ki,[5],310 nM
same,Activity,Mus musculus [27],Non-toxic
same,Ki,[6],0.95 nM
same,Kd,[28],0.54 nM
same,Ki,[7],6.2 nM
same,Ki,[8],7.8 nM
same,Ki,[9],4 nM
same,logD,[1],0.99
same,Ki,[10],0.26 nM
same,Ki,[11],0.31 nM
same,Activity,Mus musculus [29],Non-toxic
same,Ki,[12],0.26 nM
same,Activity,Mus musculus [30],Non-toxic
same,Activity,Mus musculus [31],Non-toxic
Clc1ccc(C2CC3CCC2N3)cn1 (centres undefined) [EPIBATIDINE],Ki,[11],0.045 nM
CN1[C@@H]2CC[C@@H]1[C@@H](c1cncc(-c3cccnc3F)c1)C2 (stereo in doubt; (+)-6b),Ki,[11],7.35 nM
